Results: patent US6867180B1, “Use of calreticulin and calreticulin fragments to inhibit endothelial cell growth and angiogenesis, and suppress tumor growth” (The United States of America as represented by the …, priority 1998, dated 2005)
Like-named read-outs stand apart in the source and are kept apart here. Where no end group is shown, it is not given here.

Tests used:
[1] = tested on: human B cell lines VDS-O and CA-46; assay: Proliferation of indicator B cell lines; assay type: cell-based; details: 1-100 μg/ml
From the text: Human mononuclear cells, and mononuclear cells enriched for T or B lymphocytes, were used in proliferation assays in the presence of phytohemagglutinin (Sigma), pokeweed-mitogen (Sigma), or Epstein-Barr virus (B95-8 strain), as described (Tosato et al., J. Immunol. 140:4329-4336, 1988). The lymphoblastoid cell line VDS-O (Tosato, et al., J. Immunol. 137:2037-2042, 1986); the Burkitt lymphoma cell lines CA46, BL-41, KK124, Ag876, SHO (Cherney et al., Cancer Res. 57:2508-2515, 1997); the T-cell line Molt-4 (ATCC); the Hodgkin's lymphoma cell line Hs445 (ATCC); the prostate adenocarcinoma cell lines TSU-Prl (from A. Passaniti, NIH, Baltimore, Md.), Du145 (ATCC), and PC3 (ATCC); and the acute promyelocytic leukemia cell line HL-60 (ATCC) were cultured in RPMI 1640 medium with 10% heat inactivated fetal calf serum (BioWhittaker), 20 mM L-glutamine (Sigma) and 5 μg/ml gentamicin, and tested in 3-5 day proliferation assays at cell densities ranging from 300 to 2400 cells/well. All other cell lines were tested for proliferation in 3-day assays. The neuroblastoma cell line SKNMC (ATCC) was cultured in EMEM medium (BioWhittaker) with 10% heat inactivated fetal calf serum (BioWhittaker) and 5 μg/ml gentamicin (Sigma) and tested for proliferation at 125-1000 cells/well. The lung adenocarcinoma cell line A549 (ATCC) was cultured in F-12 Nutrient Mixture (HAM, GIBCO BRL) with 10% heat inactivated fetal calf serum (BioWhittaker) and 5 μg/ml gentamicin (Sigma), and tested for proliferation at 250-2000 cells/well. The breast adenocarcinoma MDA-MB-468 (ATCC) and the Wilms tumor SK-NEP-1(ATCC) cell lines were cultured in Leibovitz L-15 medium (GIBCO BRL) supplemented with 10% heat inactivated fetal calf serum (BioWhittaker) and 5 μg/ml gentamicin (Sigma), and tested for proliferation at 300-2500 cells/well. The colon carcinoma cell line SW480 (ATCC), the melanoma cell line A-375 (ATCC), and human foreskin fibroblasts (H568, ATCC) were cultured in DMEM medium (BioWhittaker) with 10% heat inactivated fetal calf serum (BioWhittaker) and 5 μg/ml gentamicin (Sigma), and were tested for proliferation at 500-4000 cells/well. All cell lines tested mycoplasma negative.

[2] = tested on: Fetal bovine heart endothelial cells
Method: Fetal bovine heart endothelial cells (American Type Culture Collection, ATCC, Manassas, Va.) were grown through passage 12 in DMEM culture medium (BioWhittaker, Walkersville, Md.) containing 10% heat inactivated fetal bovine serum (BioWhittaker), 100 ng/ml bFGF (R&D Systems, Minneapolis, Minn.), and 5 μg/ml gentamicin (Sigma). For proliferation assays, cells were trypsinized (Trypsin/EDTA, Gibco BRL), washed, suspended in culture medium (DMEM containing 10% heat inactivated fetal bovine serum and 5 μg/ml gentamicin), plated (800 cells/well in 0.2 ml culture medium) in triplicate onto 96 well plates, and incubated for 5 days.

[3] = biological target: T1, recombinant MBP-calreticulin fragment 120-180 (Seq. I.D. No. 5) (human, UniProt P14211 137-197 (mouse entry)); assay: affinity column carrying a mixture of the three peptides on Sepharose
T1 construct: also called MBP-120-180 calreticulin; 61 amino acid calreticulin fragment
T1 sequence: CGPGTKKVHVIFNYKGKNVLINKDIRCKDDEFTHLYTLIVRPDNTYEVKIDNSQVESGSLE
Method: To this end, purified preparations of the VDS-O cell line containing full length calreticulin (Seq. I.D. No. 3) as well as N-terminal calreticulin fragments were prepared and tested to determine how these components were retained over an affinity column. To prepare the affinity column, three peptides were synthesized ([…], Seq. I.D. 13; KAFFKR, Seq. I.D. No. 33; and KVFFKR, Seq. I.D. No. 32), purified, and coupled to CNBr-activated Sepharose 4B (Pharmacia). […] The purified preparations of VDS-O cell line containing both full length as well as N-terminal calreticulin fragments were then loaded on the column (Starting material).
To address this issue further, recombinant MBP-calreticulin fragment 120–180 (Seq. I.D. No. 5) was tested for its ability to bind to the affinity column described supra.

[4] = tested on: peptides KLGFFKR, KAFFKR and KVFFKR coupled to CNBr-activated Sepharose; assay: Affinity column binding to integrin / steroid receptor motif peptides; details: elution with 20 mM EDTA
From the text: FIG. 18 is a Western blot analysis of fractions obtained through affinity purification over a column containing KXaa1FFXaa2R (Seq. I.D. No. 11) and KXaa1GFFKR (Seq. I.D. No. 10). Purified supernatants from the VDS-0 cell line containing full length calreticulin and N-terminal fragments of calreticulin were affinity purified over a mixture of peptides KLGFFKR (Seq. I.D. No. 13), KAFFKR (Seq. I.D. No. 33) and KVFFKR (Seq. I.D. No. 32) coupled to CNBr-activated Sepharose. Starting material (lane 1), unbound material (lanes 2, 3) and bound material (lanes 4, 5) were separated by SDS-PAGE, transferred to nitrocellulose, and subsequently stained with a rabbit antiserum against human calreticulin.
To this end, purified preparations of the VDS-O cell line containing full length calreticulin (Seq. I.D. No. 3) as well as N-terminal calreticulin fragments were prepared and tested to determine how these components were retained over an affinity column. To prepare the affinity column, three peptides were synthesized ([…], Seq. I.D. 13; KAFFKR, Seq. I.D. No. 33; and KVFFKR, Seq. I.D. No. 32), purified, and coupled to CNBr-activated Sepharose 4B (Pharmacia). First, the ability of calreticulin, purified from the culture supernatant of the lymphoblastoid cell line VDS-O, to selectively bind to the column and be eluted by a buffer solution containing 20 mM EDTA and 100 mM NaCl, was verified. […]

[5] = tested on: bFGF-induced neovascularization; assay: Murine Matrigel assay of angiogenesis in vivo; set-up: species or system BALB/c nude mice; details: Exp. 4; concentration not given; bFGF 150 ng/ml
Method: The murine Matrigel assay (Passaniti et al., Lab. Invest. 67:519-528, 1992) was employed to evaluate the effects of calreticulin and calreticulin fragments on angiogenesis in vivo. The Matrigel assay was performed as described by Angiolillo et al. (J. Exp. Med. 182:155-162, 1995). Matrigel, a crude extract of the Englebreth-Holm-Swarm tumor, was obtained from Collaborative Biomedical Products, Becton Dickinson Labware, Bedford, Mass. An aliquot (0.5 ml) of Matrigel alone or with desired additives was injected subcutaneously (s.c.) into the mid abdominal region of female BALB/c nude mice, 6-8 weeks old. Five mice were injected with each mixture. After 5-7 days, the animals were sacrificed, Matrigel plugs were removed, fixed in 10% neutral buffered formalin solution (Sigma), and embedded in paraffin. Tissues were sectioned (5μ thickness), and slides stained with Masson's trichrome. Quantitative analysis of angiogenesis in Matrigel plugs utilized a computerized semi-automated digital analyzer (Optomax, 40-10 System, Hollis, N.H.). The instrument was adjusted to evaluate a circular area measuring […] of Matrigel, and within this area, to measure the area occupied by cells. For each plug, 12-15 distinct fields were evaluated. The fields were randomly selected from each plug, and the operator was blind to the experimental design. The average area occupied by cells/1.26×10^5 […] Matrigel field was calculated. Results are expressed as the mean area occupied by cells/Matrigel field.
Matrigel plugs were fixed in 10% neutral buffered formalin solution (Sigma), embedded in paraffin, sectioned at 4 μm, and stained with Masson's trichrome by standard methods.

[6] = Table 3 exp. 1, 12.5 μg/ml, bFGF 25 ng/ml, 5 days
[7] = Table 3 exp. 1, 25 μg/ml, bFGF 25 ng/ml, 5 days
[8] = Table 3 exp. 1, 50 μg/ml, bFGF 25 ng/ml, 5 days
[9] = Table 3 exp. 2, 50 μg/ml, bFGF 25 ng/ml, 5 days
[10] = Table 3 exp. 1, 100 μg/ml, bFGF 25 ng/ml, 5 days
[11] = Table 3 exp. 2, 100 μg/ml, bFGF 25 ng/ml, 5 days
[12] = Table 1 exp. 3, estimated concentration 0.160 μg/ml, bFGF 25 ng/ml, 5 days
[13] = Table 1 exp. 1-2, 1 μg/ml, bFGF 25 ng/ml, 5 days

## NYKGKNVLINKDIRCKDDEFTHLYTLIVRPDNTYEVKIDNSQVESGSLE [49 amino acid peptide]
[1]
  effect on proliferation of B cell lines VDS-O and CA-46: neither peptide inhibited the proliferation
[1]; listed as 49 amino acid fragment
  effect on proliferation of B cell lines VDS-O and CA-46: minimal effect
[2]; [6]
  Inhibition (%): 30.2%
  Proliferation (mean cpm/culture): 9,743 cpm/culture
[2]; [7]
  Inhibition (%): 56.7%
  Proliferation (mean cpm/culture): 6,037 cpm/culture
[2]; [8]
  Inhibition (%): 68.7%
  Proliferation (mean cpm/culture): 4,368 cpm/culture
[2]; [9]
  Inhibition (%): 45.4%
  Proliferation (mean cpm/culture): 5,004 cpm/culture

## GPGTKKVHVIFNYKGKNVLINKDIRCKDDEFTHLYTLIVRPDNTYEVKIDNSQVESGSLE [60 amino acid peptide]
[1]
  effect on proliferation of B cell lines VDS-O and CA-46: neither peptide inhibited the proliferation
[1]; listed as 60 amino acid fragment
  effect on proliferation of B cell lines VDS-O and CA-46: minimal effect
[2]; [8]
  Inhibition (%): 40.1%
  Proliferation (mean cpm/culture): 8,318 cpm/culture
[2]; [10]
  Inhibition (%): 87.9%
  Proliferation (mean cpm/culture): 1,688 cpm/culture
[2]; [11]
  Inhibition (%): 59.5%
  Proliferation (mean cpm/culture): 3,709 cpm/culture

## light chain of human ferritin: recombinant purified light chain of human ferritin [reference compound]
[2]; 1 pg to 1 μg/ml, not shown
  effect on the proliferation of endothelial cells: minimal effect

## RANTES [reference compound]
[2]
  inhibitory effect of control peptide in endothelial cell assays: no inhibitory effect
[2]; [10]
  Proliferation (mean cpm/culture): 16,443 cpm/culture
[2]; Table 3 exp. 2, 12.5 μg/ml, bFGF 25 ng/ml, 5 days
  Proliferation (mean cpm/culture): 13,644 cpm/culture
[2]; [9]
  Proliferation (mean cpm/culture): 10,291 cpm/culture

B1: peptide KLGFFKR (Seq. I.D. No. 13) (peptide)
peptide: KLGFFKR
notes: Synthetic peptide, coupled to Sepharose in a mixture with the two other peptides; also called portion of an integrin
[3]
  binding result: no binding

B2: peptide KAFFKR (Seq. I.D. No. 33) (peptide)
peptide: KAFFKR
notes: Synthetic peptide, coupled to Sepharose in a mixture with the two other peptides; also called portion of the estrogen receptor
[3]
  binding result: no binding

B3: peptide KVFFKR (Seq. I.D. No. 32) (peptide)
peptide: KVFFKR
notes: Synthetic peptide, coupled to Sepharose in a mixture with the two other peptides; also called portion of the glucocorticoid receptor
[3]
  binding result: no binding

B4: Gel-eluted calreticulin: natural calreticulin from purified VDS-O B cell line supernatant, 55 kDa band eluted from gel (protein)
chain: EPAVYFKEQFLDGDGWTSRWIESKHKSDFGKFVLSSGKFYGDEEKDKGLQTSQDARFYALSASFEPFSNKGQTLVVQFTVKHEQNIDCGGGYVKLFPNSLDQTDMHGDSEYNIMFGPDICGPGTKKVHVIFNYKGKNVLINKDIRCKDDEFTHLYTLIVRPDNTYEVKIDNSQVESGSLEDDWDFLPPKKIKDPDASKPEDWDERAKIDDPTDSKPEDWDKPEHIPDPDAKKPEDWDEEMDGEWEPPVIQNPEYKGEWKPRQIDNPDYKGTWIHPEIDNPEYSPDPSIYAYDNFGVLGLDLWQVKSGTIFDNFLITNDEAYAEEFGNETWGVTKAAEKQMKDKQDEEQRLKEEEEDKKRKEEEEAEDKEDDEDKDEDEEDEEDKEEDEEEDVPGQAKDEL
[4]
  binding to peptide affinity column: retained by the column
[2]; [12]
  Inhibition (%): 81%
  Proliferation (mean cpm/culture): 11,226 cpm/culture

B5: Cleaved calreticulin: calreticulin cleaved (factor Xa) and purified from MBP-calreticulin (protein, UniProt P27797 18-417, looked up)
Calreticulin: EPAVYFKEQFLDGDGWTSRWIESKHKSDFGKFVLSSGKFYGDEEKDKGLQTSQDARFYALSASFEPFSNKGQTLVVQFTVKHEQNIDCGGGYVKLFPNSLDQTDMHGDSEYNIMFGPDICGPGTKKVHVIFNYKGKNVLINKDIRCKDDEFTHLYTLIVRPDNTYEVKIDNSQVESGSLEDDWDFLPPKKIKDPDASKPEDWDERAKIDDPTDSKPEDWDKPEHIPDPDAKKPEDWDEEMDGEWEPPVIQNPEYKGEWKPRQIDNPDYKGTWIHPEIDNPEYSPDPSIYAYDNFGVLGLDLWQVKSGTIFDNFLITNDEAYAEEFGNETWGVTKAAEKQMKDKQDEEQRLKEEEEDKKRKEEEEAEDKEDDEDKDEDEEDEEDKEEDEEEDVPGQAKDEL
[5]
  Inhibition (%): 58%
  Mean Surface Area Occupied by Cells: 3,464 mm^2/1.26 × 10^5 mm^2
[2]; [13]
  Inhibition (%): 72%
  Proliferation mean cpm/culture (±SD): 7,088 (1846) cpm/culture
